Data as given in patent publication US5306812A, “Immunoglobulin-binding polypeptides” (The Regents of the University of California, priority 1990, dated 1994).
Where no end group is shown, it is not given here.

What was measured:
[1] = test system: murine monoclonal antibodies; experiment: ELISA: binding of solid-phase CD4 peptide to murine monoclonal antibodies; set-up: species or system mouse; conditions: compared with p21-38 and p21-49 or with background
Description: The plate was maintained for six hours at 37 degrees (37° C.) on a rotating platform to allow the peptide to adhere to the wells and form solid supports. After aspirating the excess liquid from the wells, 200 ul of washing solution containing TWEEN 20 (0.5% polyoxyethylenesorbitan monolaurate) in phosphate buffered saline (0.5M sodium chloride, 0.01M sodium phosphate at pH 7.2; PBS) was admixed to each well and immediately removed by aspiration. After aspirating the excess liquid from the wells 200 ul of blocking solution consisting of 1% bovine serum albumin (BSA) in phosphate buffered saline at pH 7.4 was admixed to each well, and the wells maintained at room temperature for one hour. The wells were washed with 200 ul a solution containing 0.5% TWEEN-20 (Polyoxyethylenesorbitan monolaurate) in PBS and the wash solution immediately removed by aspiration.
A first antibody, either a murine monoclonal antibody or a purified human myeloma protein was diluted to approximately 80 ug per ml in binding buffer consisting of 1% BSA and 0.5% TWEEN 20 (polyoxyethylenesorbitan monolaurate) in PBS and then various amounts, depending on the final antibody concentration desired, were admixed to each well and the wells maintained at room temperature for 3 or 4 hours in a humidified atmosphere. The wells were then washed 6 times with washing buffer and the excess liquid removed by aspiration.
50 ul of a horse radish peroxidase (HRP)-conjugated anti-mouse Ig secondary antibody (Cappel, Cochranvile, Pa.) or HRP-conjugated antihuman Ig (Sigma, St. Louis, Mo.) diluted 1:10,000 and 1:1,500, respectively, in binding buffer supplemented with 15% heat inactivated calf serum, was then admixed to each well. The wells were maintained for 1 hour at room temperature and then washed several times with washing buffer. 100 ul of freshly prepared substrate, prepared by adding 4 mg of 0-phenylendiamine and 4 ul of a 30% solution of hydrogen peroxide to 10 ml of a buffer containing 0.1M citric acid and 0.2M dibasic sodium phosphate at pH 5.0. were admixed to each well. The wells were then maintained (incubated) for 30 minutes at room temperature in the dark. The reaction was stopped by adding 25 ul per well of a stop buffer consisting of aqueous 4N H2 SO4. The amount of colored reaction product produced was determined by measuring the absorbance at 492 nanometers (nm).
Each peptide's ability to bind mouse monoclonal antibodies was determined using the ELISA assay described in Example 1B.

[2] = test system: binding of peptide p21-49 to immunoglobulin (monoclonal antibodies 62 and OKT4A); experiment: ELISA: binding of p21-49 to immunoglobulins in the presence of dextran sulfate; set-up: species or system murine; conditions: dextran sulfate 0.01 ug/ml to 50 ug/ml; both monoclonal antibody 62 (anti-thyroglobulin) and OKT4A (anti-CD4)
Description: The binding of peptide p21-49 to various immunoglobulins was determined in the presence of varying concentration of dextran sulfate. Briefly, peptide p21-49 was affixed to the wells of microliter plates as described in Example 1B. Dextran sulfate was then admixed to individual wells at a final concentration ranging from 0.01 ug/ml to 50 ug/ml. The first antibody, either a murine monoclonal antibody immunospecific for thyroglobulin or a murine monoclonal antibody immunospecific for CD4 protein was diluted to approximately 4 ug/ml in binding buffer and admixed to each well. The wells were maintained at room temperature for 4 hours in a humidified atmosphere. The wells were then washed 6 times with washing buffer and the excess liquid removed by aspiration. The assay was completed according to Example 1B.

KSIQFHWKNSNQIKILG [p 22-38, KSIQ FHWKN SNQIK ILG]
relative binding of CD4 peptides (FIG. 15) [1]: comparable binding with that of p21-38 and p21-49

KKSIQFHWKNSNQIKIL [p 21-37, KKSIQ FHWKN SNQIK IL]
relative binding of CD4 peptides (FIG. 15) [1]: comparable binding with that of p21-38 and p21-49

dextran sulfate
inhibition of peptide p21-49 binding to immunoglobulin (FIG. 7) [2]: inhibits the binding

IQFHWKNSNQIKILG [p 24-38, IQ FHWKN SNQIK ILG]
relative binding of CD4 peptides (FIG. 15) [1]: comparable binding with that of p21-38 and p21-49

SIQFHWKNSNQIKILG [p 23-38, SIQ FHWKN SNQIK ILG]
relative binding of CD4 peptides (FIG. 15) [1]: comparable binding with that of p21-38 and p21-49
